The text below walks through data of publication PMC7367283, “A PIP2 substitute mediates voltage sensor-pore coupling in KCNQ activation” (Communications Biology, 2020).

Values joined by “and” are separate entries in the source; they are usually repeats but may differ in a detail not shown here. Equal values may be shown once.

This experiment deals with KCNQ1 K354A (Homo sapiens, UniProt P51787, K354A). Nature of the experiment: Two-electrode voltage clamp of mutant KCNQ1 in Xenopus oocytes. Type of experiment: cell-based. The source says: In a previous study, mutation of residues in the predicted PIP2-binding site reduced KCNQ1 currents. CP1 modifies voltage-dependent activation of KCNQ1 channels by shifting the voltage dependence of channel opening, measured as the voltage dependence of the conductance (G–V) relationship, to more negative voltages (Fig. 1c) among other characteristics (see below). We made mutations to the residues around the CP1-interacting pocket as indicated by molecular docking (Fig. 1b), and examined the effects of the mutations on the CP1-induced shift of the G–V relationship. The mutations of the KCNQ1 residues that interact with CP1 in docking simulations reduced the shift of the G–V relationship (Fig. 1c, d), supporting the interaction of these residues with CP1.
Complementary DNA (cDNA) encoding human KCNQ1 (UniProtKB/Swiss‐Prot under accession no. P51787), KCNQ2 (O43526), KCNQ3 (O43525), KCNE1 (P15382), Kir1.1 (P48048), hERG (Q12809), KV4.2 (Q63881), NaV1.5 (Q14524), NaV β1 (Q07699), CaV1.2 (Q13936), CaV β1a (Q02641), CaV α2/δ1 (P54289), and HCN4 (Q9Y3Q4) were subcloned into oocyte expression vectors, respectively. Site-directed mutations of the KCNQ1 channel were all produced by overlap extension polymerase chain reaction (PCR) with high-fidelity Pfu polymerase (Stratagene, CA). The presence of the desired mutation was verified by sequencing the PCR-amplified regions. All the primer sequences used in this study are available in Supplementary Table 1. The complementary RNA (cRNA) of all these channels and mutations was transcribed in vitro with the T3, T7, or SP6 polymerase mMessage mMachine kit (Invitrogen, Thermo Fisher Scientific, MO).
The use of Xenopus laevis to obtain oocytes was approved by the Washington University Animal Studies Committee (protocol #20190030). Oocytes were manually dispersed and digested with collagenase (0.5 mg/ml, Sigma-Aldrich, Saint Louis, MO) to remove the follicle cell layer. Stage V or VI oocytes were selected and injected with cRNAs (9.2 ng) of channel or mutations. Especially, to characterize IKs, a mix of cRNAs at a molar ratio 4:1 (KCNQ1:KCNE1) was injected. For KCNQ2/KCNQ3, the molar ratio was 1:1 (KCNQ2:KCNQ3). For sodium channels, a 3:1 molar ratio (β1:NaV1.5) and for calcium channels a weight ratio 1:1:1 (β1:α2/δ1:CaV1.2) was injected, respectively. Injected oocytes were incubated in ND96 solution containing (in mM) 96 NaCl, 2 KCl, 1.8 CaCl2, 1 MgCl2, and 5 HEPES, pH 7.6, supplemented with 2.5 mM Na pyruvate and 1% penicillin–streptomycin, at 18 °C for 3–7 days before recording.
The whole-oocyte ionic currents were recorded with a GeneClamp 500B amplifier (Axon Instruments, CA) or iTEV90 amplifier (HEKA, Germany) and then sampled at 1 kHz and low-pass-filtered at 2 kHz. The Patchmaster software (HEKA, Germany) was used to acquire data. The Kir1.1 current was recorded with a high K^+ bath solution containing (in mM) 96 KCl, 4 NaCl, 1 CaCl2, 2 MgCl2, and 10 HEPES, pH 7.3–7.4. The HCN4 current was recorded in ND66 solution containing (in mM) 66 NaCl, 32 KCl, 1.8 CaCl2, 1 MgCl2, and 5 HEPES, pH 7.6. All the other potassium channels were recorded in ND96 solution. The currents of CaV1.2 channel were recorded in 40 mM Ba^2+ bath solution containing (in mM) 40 Ba(OH)2, 50 TEA-OH, 2 KOH, and 5 HEPES, adjusted to pH 7.4 with methanesulfonic acid. CP1 (DISODIUM 5-BROMO-2-[9-CHLORO-3-(SULFONATOOXY) NAPHTHO [1,2-B] THIEN-2-YL]-1H-INDOL-3-YL SULFATE, Sigma-Aldrich, MO) and Chromanol 293B (Sigma-Aldrich, MO) were dissolved in bath solutions. All the chemicals were purchased from Sigma-Aldrich. To measure the I–V relations of the Kir1.1 channel, the test voltage was set from −100 to +60 mV for 1 s with 20-mV increments. The test pulses were stepped from a holding potential of 0 mV and then stepped back to 0 mV. The HCN4 currents were recorded by a test pulse between −30 and −140 mV in 10-mV step from a holding potential of −30 mV. […]
In general terms: Two-electrode voltage clamp holds a large cell at a set potential and records current.

For the compound `O=S(=O)([O-])Oc1c(-c2sc3c(ccc4cccc(Cl)c43)c2OS(=O)(=O)[O-])[nH]c2ccc(Br)cc12.[Na+].[Na+]` [CP1, DISODIUM 5-BROMO-2-[9-CHLORO-3-(SULFONATOOXY) NAPHTHO [1,2-B] THIEN-2-YL]-1H-INDOL-3-YL SULFATE], the G/Gmax is 1.0000 (10 µM CP1, -10 mV); 0.9896 (10 µM CP1, -20 mV); 0.9492 (10 µM CP1, -30 mV); 0.8838 (10 µM CP1, -40 mV); 0.7639 (10 µM CP1, -50 mV); 0.6020 (10 µM CP1, -60 mV). In addition, the G/Gmax came out at 0.4417 (10 µM CP1, -70 mV); 0.3190 (10 µM CP1, -80 mV); 0.2082 (10 µM CP1, -90 mV); 0.1212 (10 µM CP1, -100 mV); 0.0566 (10 µM CP1, -110 mV); 0.0000 (10 µM CP1, -120 mV). Besides, the “∆V1/2” value (10 µM CP1, individual oocytes) is 42.6379 mV and 47.4781 mV and 37.0916 mV and 51.9279 mV and 26.7588 mV.
